Columns and labels:
Test in all cases: Test D controlled growth environment herbicide test, pre- and postemergence
Format in all cases: in vivo
[1] = tested on: field poppy (Papaver rhoeas)
How it was run: (§1)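 Pre-emergence: seeds sown in silt loam soil were sprayed with compound in a non-phytotoxic solvent mix containing surfactant. Post-emergence: plants at 2 to 18 cm (1- to 4-leaf stage) in peat moss/vermiculite medium got the same formulation. Visual 0–100 rating versus controls after 14 to 21 d.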

[2] = tested on: barley, spring (spring barley, Hordeum vulgare)
How it was run: as §1

[3] = tested on: wheat, spring (spring wheat, Triticum aestivum)
How it was run: as §1

[4] = tested on: barley, winter (winter barley, Hordeum vulgare)
How it was run: as §1

[5] = tested on: oat, wild (wild oat, Avena fatua)
How it was run: as §1

[6] = tested on: canarygrass (Phalaris minor)
How it was run: as §1

[7] = tested on: oilseed rape (Brassica napus)
How it was run: as §1

[8] = tested on: bluegrass (annual bluegrass, Poa annua)
How it was run: as §1

[9] = tested on: foxtail, green (green foxtail, Setaria viridis)
How it was run: as §1

[10] = tested on: galium (catchweed bedstraw, Galium aparine)
How it was run: as §1

[11] = tested on: pigweed (Amaranthus retroflexus)
How it was run: as §1

[12] = tested on: buckwheat, wild (wild buckwheat, Polygonum convolvulus)
How it was run: as §1

[13] = tested on: mustard, wild (wild mustard, Sinapis arvensis)
How it was run: as §1

[14] = Postemergence, 31 g ai/ha, scale 0 to 100 (0 no effect, 100 complete control)
[15] = Postemergence, 125 g ai/ha, visual rating on scale 0 (no effect) to 100 (complete control), 14 to 21 d
[16] = Postemergence, 250 g ai/ha, scale 0 to 100 (0 no effect, 100 complete control)
[17] = Preemergence, 125 g ai/ha, scale 0 to 100 (0 no effect, 100 complete control)
[18] = Preemergence, 250 g ai/ha, scale 0 to 100, 0 no effect, 100 complete control
[19] = postemergence, 62 g ai/ha, scale 0 to 100, 0 no effect, 100 complete control
[20] = Preemergence, 62 g ai/ha, scale 0 to 100 (0 no effect, 100 complete control)

CCCC(=O)Oc1c(C)nn(C)c(=O)c1-c1c(C)sc2ccc(C)cc12 [Compound 105]
5: Plant response rating, Barley, Spring [2, 19] | Plant response rating (scale of 0 to 100), Barley, Winter ([4]; Preemergence, 31 g ai/ha) | Plant response rating, Buckwheat, Wild [12, 20] | Plant response rating, Buckwheat, Wild [12, 17] | Mustard, Wild plant response rating [13, 14]
98: Plant response rating, Canarygrass [6, 18]
60: Plant response rating, Oilseed Rape [7, 16] | Plant response rating (scale of 0 to 100), Oilseed Rape ([7]; Preemergence, 62 g ai/ha) | Plant response rating, Bluegrass [8, 17]
70: Field Poppy plant response rating [1, 14] | Foxtail, Green plant response rating [9, 14] | Plant response rating, Foxtail, Green [9, 19]
65: Plant response rating, Foxtail, Green [9, 17] | Buckwheat, Wild plant response rating [12, 14]
85: Plant response rating, Oat, Wild [5, 17] | Plant response rating, Oat, Wild [5, 19] | Plant response rating (scale of 0 to 100), Canarygrass ([6]; Preemergence, 31 g ai/ha) | Galium plant response rating [10, 14] | Plant response rating, Galium [10, 17] | Pigweed plant response rating [11, 14]
10: Plant response rating, Barley, Spring [2, 15] | Plant response rating, Wheat, Spring [3, 19] | Plant response rating, Barley, Winter [4, 15] | Plant response rating, Barley, Winter [4, 20] | Plant response rating, Barley, Winter [4, 17] | Plant response rating, Barley, Winter [4, 19] | Bluegrass plant response rating [8, 14] | Plant response rating, Bluegrass [8, 19] | Plant response rating (scale of 0 to 100), Mustard, Wild ([13]; Preemergence, 31 g ai/ha)
95: Plant response rating, Oat, Wild [5, 15] | Plant response rating (scale of 0 to 100), Canarygrass ([6]; Preemergence, 62 g ai/ha) | Plant response rating, Canarygrass [6, 17] | Plant response rating, Galium [10, 15] | Plant response rating (scale of 0 to 100), Galium ([10]; Preemergence, 62 g ai/ha) | Plant response rating, Galium [10, 19] | Plant response rating, Buckwheat, Wild [12, 19]
50: Plant response rating, Canarygrass [6, 19] | Plant response rating, Oilseed Rape [7, 17] | Plant response rating, Oilseed Rape [7, 18]
45: Plant response rating (scale of 0 to 100), Foxtail, Green ([9]; Preemergence, 31 g ai/ha)
80: Plant response rating, Field Poppy [1, 15] | Plant response rating, Field Poppy [1, 16] | Oat, Wild plant response rating [5, 14] | Plant response rating (scale of 0 to 100), Oat, Wild ([5]; Preemergence, 31 g ai/ha) | Plant response rating (scale of 0 to 100), Oat, Wild ([5]; Preemergence, 62 g ai/ha) | Plant response rating, Canarygrass [6, 16] | Plant response rating, Foxtail, Green [9, 16] | Plant response rating (scale of 0 to 100), Galium ([10]; Preemergence, 31 g ai/ha)
15: Plant response rating, Barley, Spring [2, 16] | Plant response rating, Barley, Winter [4, 16] | Plant response rating, Oilseed Rape [7, 19] | Plant response rating (scale of 0 to 100), Buckwheat, Wild ([12]; Preemergence, 31 g ai/ha)
75: Plant response rating, Field Poppy [1, 19] | Plant response rating, Canarygrass [6, 15] | Plant response rating, Bluegrass [8, 18] | Plant response rating, Foxtail, Green [9, 15] | Plant response rating, Mustard, Wild [13, 16]
0: Barley, Spring plant response rating [2, 14] | Plant response rating (scale of 0 to 100), Barley, Spring ([2]; Preemergence, 31 g ai/ha) | Plant response rating, Barley, Spring [2, 20] | Plant response rating, Barley, Spring [2, 17] | Wheat, Spring plant response rating [3, 14] | Plant response rating (scale of 0 to 100), Wheat, Spring ([3]; Preemergence, 31 g ai/ha) | Plant response rating (scale of 0 to 100), Wheat, Spring ([3]; Preemergence, 62 g ai/ha) | Plant response rating, Wheat, Spring [3, 17] | Barley, Winter plant response rating [4, 14] | Oilseed Rape plant response rating [7, 14] | Plant response rating (scale of 0 to 100), Mustard, Wild ([13]; Preemergence, 62 g ai/ha) | Plant response rating, Mustard, Wild [13, 17]
25: Plant response rating, Wheat, Spring [3, 16] | Plant response rating, Barley, Winter [4, 18] | Plant response rating, Oilseed Rape [7, 15] | Plant response rating, Bluegrass [8, 16] | Plant response rating (scale of 0 to 100), Bluegrass ([8]; Preemergence, 31 g ai/ha) | Plant response rating, Buckwheat, Wild [12, 18] | Plant response rating, Mustard, Wild [13, 19]
20: Plant response rating, Barley, Spring [2, 18] | Plant response rating, Wheat, Spring [3, 15] | Plant response rating, Bluegrass [8, 15] | Plant response rating, Mustard, Wild [13, 18]
100: Plant response rating (scale of 0 to 100), Field Poppy ([1]; Preemergence, 31 g ai/ha) | Plant response rating (scale of 0 to 100), Field Poppy ([1]; Preemergence, 62 g ai/ha) | Plant response rating, Field Poppy [1, 17] | Plant response rating, Field Poppy [1, 18] | Plant response rating, Oat, Wild [5, 16] | Plant response rating, Oat, Wild [5, 18] | Plant response rating, Foxtail, Green [9, 18] | Plant response rating, Galium [10, 16] | Plant response rating, Galium [10, 18] | Plant response rating, Pigweed [11, 15] | Plant response rating, Pigweed [11, 16] | Plant response rating (scale of 0 to 100), Pigweed ([11]; Preemergence, 31 g ai/ha) | Plant response rating (scale of 0 to 100), Pigweed ([11]; Preemergence, 62 g ai/ha) | Plant response rating, Pigweed [11, 17] | Plant response rating, Pigweed [11, 18] | Plant response rating, Pigweed [11, 19] | Plant response rating, Buckwheat, Wild [12, 15] | Plant response rating, Buckwheat, Wild [12, 16]
40: Plant response rating, Wheat, Spring [3, 18] | Canarygrass plant response rating [6, 14] | Plant response rating, Mustard, Wild [13, 15]
30: Plant response rating, Bluegrass [8, 20]
55: Plant response rating (scale of 0 to 100), Oilseed Rape ([7]; Preemergence, 31 g ai/ha) | Plant response rating (scale of 0 to 100), Foxtail, Green ([9]; Preemergence, 62 g ai/ha)

Cc1cc(C)c2ccccc2c1-c1c(O)c(C)nn(C)c1=O [Compound 21]
0: Plant response rating, Barley, Spring [2, 14] | Plant response rating, Barley, Winter [4, 14]
100: Plant response rating, Field Poppy [1, 15] | Plant response rating, Field Poppy [1, 16] | Plant response rating, Field Poppy [1, 19] | Plant response rating, Oat, Wild [5, 16] | Plant response rating, Oilseed Rape [7, 15] | Plant response rating, Oilseed Rape [7, 16] | Plant response rating, Oilseed Rape [7, 19] | Galium plant response rating [10, 14] | Plant response rating, Galium [10, 15] | Plant response rating, Galium [10, 16] | Plant response rating, Galium [10, 19] | Buckwheat, Wild plant response rating [12, 14] | Plant response rating, Buckwheat, Wild [12, 15] | Plant response rating, Buckwheat, Wild [12, 16] | Plant response rating, Buckwheat, Wild [12, 19] | Mustard, Wild plant response rating [13, 14] | Plant response rating, Mustard, Wild [13, 15] | Plant response rating, Mustard, Wild [13, 16] | Plant response rating, Mustard, Wild [13, 19]
10: Plant response rating, Barley, Spring [2, 15] | Plant response rating, Barley, Winter [4, 19]
90: Plant response rating, Pigweed [11, 15]
40: Plant response rating, Wheat, Spring [3, 15] | Plant response rating, Barley, Winter [4, 16]
50: Plant response rating, Wheat, Spring [3, 16] | Plant response rating, Bluegrass [8, 16]
35: Plant response rating, Bluegrass [8, 15]
98: Plant response rating, Pigweed [11, 16]
70: Foxtail, Green plant response rating [9, 14]
95: Plant response rating, Canarygrass [6, 16] | Plant response rating, Foxtail, Green [9, 16]
85: Field Poppy plant response rating [1, 14] | Plant response rating, Oat, Wild [5, 15] | Plant response rating, Oat, Wild [5, 19] | Plant response rating, Canarygrass [6, 15] | Plant response rating, Foxtail, Green [9, 15] | Plant response rating, Pigweed [11, 19]
20: Wheat, Spring plant response rating [3, 14] | Bluegrass plant response rating [8, 14]
5: Plant response rating, Barley, Spring [2, 19]
80: Oat, Wild plant response rating [5, 14] | Canarygrass plant response rating [6, 14] | Plant response rating, Canarygrass [6, 19] | Oilseed Rape plant response rating [7, 14] | Plant response rating, Foxtail, Green [9, 19] | Pigweed plant response rating [11, 14]
30: Plant response rating, Barley, Spring [2, 16] | Plant response rating, Wheat, Spring [3, 19] | Plant response rating, Barley, Winter [4, 15] | Plant response rating, Bluegrass [8, 19]

Reference: patent US10597388B2, “Pyridazinone herbicides” (FMC CORPORATION, priority 2014, dated 2020)
